Measurements reported in ChEMBL document CHEMBL3864190, “Discovery of Pyrazolopyrimidine Derivatives as Novel Dual Inhibitors of BTK and PI3Kδ” (ACS Med Chem Lett, 2016).

Tests used:
[1] = target: T1, Tyrosine-protein kinase BTK (Homo sapiens, UniProt Q06187); conditions: at 100 nM
[2] = target: T2, Phosphatidylinositol 4,5-bisphosphate 3-kinase catalytic subunit delta isoform (Homo sapiens) (UniProt O00329); assay: Inhibition of PI3Kdelta (unknown origin) using biotinylated PIP2 as substrate at 100 nM in presence of streptavidin-APC by FRET assay
T2 sequence (whole entry): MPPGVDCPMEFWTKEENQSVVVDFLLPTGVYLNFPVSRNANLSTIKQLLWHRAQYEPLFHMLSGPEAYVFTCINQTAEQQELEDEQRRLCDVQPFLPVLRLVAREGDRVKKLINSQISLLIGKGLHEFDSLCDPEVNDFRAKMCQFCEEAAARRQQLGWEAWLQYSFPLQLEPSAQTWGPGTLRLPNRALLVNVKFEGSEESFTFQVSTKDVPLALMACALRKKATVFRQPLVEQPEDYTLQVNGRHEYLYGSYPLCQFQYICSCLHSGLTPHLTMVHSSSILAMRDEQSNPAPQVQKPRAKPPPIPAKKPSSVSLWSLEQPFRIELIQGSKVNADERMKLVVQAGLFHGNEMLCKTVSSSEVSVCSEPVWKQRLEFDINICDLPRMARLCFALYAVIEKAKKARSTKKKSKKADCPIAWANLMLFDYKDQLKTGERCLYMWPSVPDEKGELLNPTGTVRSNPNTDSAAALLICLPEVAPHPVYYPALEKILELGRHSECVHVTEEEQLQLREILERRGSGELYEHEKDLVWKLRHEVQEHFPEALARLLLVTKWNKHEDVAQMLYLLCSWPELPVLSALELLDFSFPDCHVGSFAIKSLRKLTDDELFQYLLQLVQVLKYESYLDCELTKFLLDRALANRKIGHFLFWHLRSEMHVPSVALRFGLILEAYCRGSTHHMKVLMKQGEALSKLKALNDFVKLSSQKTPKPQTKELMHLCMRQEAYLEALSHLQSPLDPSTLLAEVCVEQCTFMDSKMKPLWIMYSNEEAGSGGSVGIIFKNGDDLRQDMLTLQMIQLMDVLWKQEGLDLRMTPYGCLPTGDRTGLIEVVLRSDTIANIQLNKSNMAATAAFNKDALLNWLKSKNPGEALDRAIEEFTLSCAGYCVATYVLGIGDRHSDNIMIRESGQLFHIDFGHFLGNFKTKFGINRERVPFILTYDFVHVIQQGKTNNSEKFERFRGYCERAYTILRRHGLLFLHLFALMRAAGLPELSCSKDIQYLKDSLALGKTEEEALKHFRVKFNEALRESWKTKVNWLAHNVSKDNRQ

[3] = Drug metabolism in mouse liver microsomes assessed as UGT-mediated compound glucuronidation by measuring parent compound remaining at 5 uM after 30 mins in presence of UDPGA by LC-MS/MS analysis; assay type: ADME; conditions: for remaining at 0.5 h, 5 µM: liver microsomes, read-out: Stability
[4] = target: T1, Tyrosine-protein kinase BTK
[5] = target: T3, Phosphatidylinositol 4,5-bisphosphate 3-kinase catalytic subunit delta isoform (Homo sapiens, UniProt O00329); assay: Inhibition of PI3Kdelta (unknown origin) using biotinylated PIP2 as substrate in presence of streptavidin-APC by FRET assay
T3 sequence (O00329 whole entry): T2 sequence (whole entry)

[6] = AUC in mouse plasma at 15 mg/kg, po by HPLC/MS analysis; assay type: ADME, organism-based
[7] = Drug metabolism in human liver microsomes assessed as compound oxidation by measuring parent compound remaining at 1 uM after 30 mins in presence of NADPH by LC-MS/MS analysis; assay type: ADME; conditions: for remaining at 0.5 h, 1 µM: liver microsomes, read-out: Stability
[8] = Clearance in mouse plasma at 5 mg/kg, iv or 15 mg/kg, po by HPLC/MS analysis; assay type: ADME, organism-based
[9] = Drug metabolism in mouse liver microsomes assessed as compound oxidation by measuring parent compound remaining at 1 uM after 30 mins in presence of NADPH by LC-MS/MS analysis; assay type: ADME; conditions: for remaining at 0.5 h, 1 µM: liver microsomes, read-out: Stability
[10] = Apparent volume of distribution in mouse plasma at 5 mg/kg, iv or 15 mg/kg, po by HPLC/MS analysis; assay type: ADME, organism-based; conditions: read-out: Vz
[11] = Oral bioavailability in mouse plasma at 15 mg/kg by HPLC/MS analysis; assay type: ADME, organism-based
[12] = Drug metabolism in human liver microsomes assessed as UGT-mediated compound glucuronidation by measuring parent compound remaining at 5 uM after 30 mins in presence of UDPGA by LC-MS/MS analysis; assay type: ADME; conditions: read-out: Stability
[13] = Half life in mouse plasma at 15 mg/kg, po by HPLC/MS analysis; assay type: ADME, organism-based
[14] = Half life in mouse plasma at 10 mg/kg, po by HPLC/MS analysis; assay type: ADME, organism-based; conditions: in vivo
[15] = Drug metabolism in dog liver microsomes assessed as compound oxidation by measuring parent compound remaining at 1 uM after 30 mins in presence of NADPH by LC-MS/MS analysis; assay type: ADME, Canis lupus familiaris; conditions: 0.5 h
[16] = Apparent volume of distribution in mouse plasma at 2 mg/kg, iv or 10 mg/kg, po by HPLC/MS analysis; assay type: ADME, organism-based; conditions: in vivo
[17] = Oral bioavailability in mouse plasma at 10 mg/kg by HPLC/MS analysis; assay type: ADME, organism-based; conditions: in vivo
[18] = Clearance in mouse plasma at 2 mg/kg, iv or 10 mg/kg, po by HPLC/MS analysis; assay type: ADME, organism-based; conditions: in vivo
[19] = Protein binding in mouse plasma; assay type: ADME, cell-free
[20] = AUC in mouse plasma at 10 mg/kg, po by HPLC/MS analysis; assay type: ADME, organism-based; conditions: in vivo
[21] = Drug metabolism in rat liver microsomes assessed as compound oxidation by measuring parent compound remaining at 1 uM after 30 mins in presence of NADPH by LC-MS/MS analysis; assay type: ADME; conditions: microsomes, 0.5 h, 1 µM
[22] = Efflux ratio of apparent permeability from basolateral to apical side over apical to basolateral side in human Caco2 cells; assay type: ADME, cell-based; conditions: caco-2
Homo sapiens [23] = species on record: Homo sapiens; assay: Selectivity ratio of IC50 for PI3Kalpha (unknown origin) to IC50 for PI3Kdelta (unknown origin)
Homo sapiens [24] = species on record: Homo sapiens; assay: Selectivity ratio of IC50 for PI3Kgamma (unknown origin) to IC50 for PI3Kdelta (unknown origin)
Homo sapiens [25] = species on record: Homo sapiens; assay: Selectivity ratio of IC50 for PI3Kbeta (unknown origin) to IC50 for PI3Kdelta (unknown origin)
Homo sapiens [26] = species on record: Homo sapiens; assay: Selectivity ratio of IC50 for human BMX to IC50 for human BTK
Homo sapiens [27] = species on record: Homo sapiens; assay: Selectivity ratio of IC50 for human TEC to IC50 for human BTK

T1 sequence (Q06187 whole entry, canonical isoform): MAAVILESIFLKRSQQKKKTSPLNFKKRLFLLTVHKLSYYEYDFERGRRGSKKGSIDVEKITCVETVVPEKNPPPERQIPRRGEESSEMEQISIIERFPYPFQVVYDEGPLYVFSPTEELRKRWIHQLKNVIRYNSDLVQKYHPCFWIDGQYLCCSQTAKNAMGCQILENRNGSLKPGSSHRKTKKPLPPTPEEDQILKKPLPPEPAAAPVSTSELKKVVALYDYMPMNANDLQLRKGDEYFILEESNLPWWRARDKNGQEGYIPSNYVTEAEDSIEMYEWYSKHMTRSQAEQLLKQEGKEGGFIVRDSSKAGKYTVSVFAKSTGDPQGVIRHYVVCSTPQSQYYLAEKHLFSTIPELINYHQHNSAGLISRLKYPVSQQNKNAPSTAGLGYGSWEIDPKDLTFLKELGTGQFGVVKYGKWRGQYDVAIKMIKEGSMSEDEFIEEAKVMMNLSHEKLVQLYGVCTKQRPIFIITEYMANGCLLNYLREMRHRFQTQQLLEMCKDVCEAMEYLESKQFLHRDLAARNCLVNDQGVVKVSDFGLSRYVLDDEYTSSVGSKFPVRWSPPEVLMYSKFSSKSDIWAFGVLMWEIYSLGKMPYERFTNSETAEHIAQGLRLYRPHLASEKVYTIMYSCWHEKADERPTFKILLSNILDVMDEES

Structure (SMILES): Nc1ncnc2c1c(-c1cc(F)c3c(c1)NCCO3)nn2C1Cc2ccccc2C1
- inhibition [1]: 52%
- inhibition [2]: 53%
- remaining at 0.5 h, 5 µM [3]: 91%

Structure (SMILES): Nc1ncnc2c1c(-c1ccc3cc[nH]c3c1)nn2C1Cc2ccccc2C1
- inhibition [1]: 46%
- inhibition [2]: 24%

Structure (SMILES): COc1ccc(-c2nn(C3Cc4ccccc4C3)c3ncnc(N)c23)cc1N
- inhibition [1]: 72%
- inhibition [2]: 14%
- remaining at 0.5 h, 5 µM [3]: 89%

Structure (SMILES): Nc1ncnc2c1c(-c1cccc(O)c1)nn2C1Cc2ccccc2C1
- inhibition [1]: 66%
- inhibition [2]: 41%

Structure (SMILES): Cc1ccc(-c2nn(C3Cc4ccccc4C3)c3ncnc(N)c23)cc1O
- IC50 [4]: 43 nM
- IC50 [5]: 172 nM

Structure (SMILES): Nc1ccc2c(c1)CC(n1nc(-c3cc(F)c4c(c3)NCCO4)c3c(N)ncnc31)CC2 (single isomer, unassigned; (+))
- IC50 [4]: 176 nM
- IC50 [5]: 55 nM

Structure (SMILES): Cc1ccccc1-n1c(Cn2nc(-c3cc(O)cc(F)c3)c3c(N)ncnc32)nc2cccc(C)c2c1=O
- IC50 [4]: > 10000 nM

Structure (SMILES): Nc1ncnc2c1c(-c1cc(O)cc(F)c1)nn2C1Cc2ccccc2C1
- AUC [6]: 0.177 µM·h
- remaining at 0.5 h, 1 µM [7]: 67%
- clearance [8]: 85 mL/min/kg
- remaining at 0.5 h, 1 µM [9]: 25%
- Vd [10]: 6.01 L/kg
- bioavailability [11]: 2.2%
- remaining at 0.5 h, 5 µM [12]: 1.3%
- IC50 [5]: 8 nM
- remaining at 0.5 h, 5 µM [3]: < 1%
- half-life [13]: 186 min

Structure (SMILES): Nc1ncnc2c1c(-c1ccc(F)c(O)c1)nn2C1Cc2ccccc2C1
- AUC [6]: 0.211 µM·h
- clearance [8]: 122 mL/min/kg
- Vd [10]: 5.45 L/kg
- bioavailability [11]: 3.7%
- half-life [13]: 48 min

Structure (SMILES): Nc1ccc2c(c1)CC(n1nc(-c3cc(F)c4c(c3)NCCO4)c3c(N)ncnc31)C2 (single isomer, unassigned; (-)) [listing 1 of 2 here]
- t1/2 [14]: 78 min
- Stability [15]: 32%
- Stability ([7]; microsomes, 0.5 h, 1 µM): 63%
- Vz [16]: 3.44 L/kg
- Stability ([9]; microsomes, 0.5 h, 1 µM): 11%
- F [17]: 40%
- CL [18]: 9.83 mL/min/kg
- IC50 [4]: 32 nM
- IC50 [5]: 16 nM
- PPB [19]: 98%
- AUC [20]: 15.2 µM·h
- Stability ([3]; microsomes, 0.5 h, 5 µM): 99%
- Stability [21]: 46%
- Ratio [22]: 1.7

Structure (SMILES): Nc1ncnc2c1c(-c1cc(O)cc(Cl)c1)nn2C1Cc2ccccc2C1
- AUC [6]: 0.033 µM·h
- clearance [8]: 156 mL/min/kg
- Vd [10]: 11.5 L/kg
- bioavailability [11]: 0.8%
- IC50 [5]: 4 nM
- half-life [13]: 36 min

Structure (SMILES): COc1ccc(-c2nn(C3Cc4ccccc4C3)c3ncnc(N)c23)cc1O
- AUC [6]: 2.37 µM·h
- remaining at 0.5 h, 1 µM [7]: 52%
- clearance [8]: 31.2 mL/min/kg
- remaining at 0.5 h, 1 µM [9]: 14%
- Vd [10]: 6.56 L/kg
- bioavailability [11]: 11%
- remaining at 0.5 h, 5 µM [12]: 7%
- remaining at 0.5 h, 5 µM [3]: 12%
- half-life [13]: 378 min

Structure (SMILES): Nc1ncnc2c1c(-c1cc(O)c(F)c(F)c1)nn2C1Cc2ccccc2C1
- AUC [6]: 0.073 µM·h
- inhibition [1]: 74%
- remaining at 0.5 h, 1 µM [7]: 75%
- inhibition [2]: 87%
- clearance [8]: 154 mL/min/kg
- remaining at 0.5 h, 1 µM [9]: 78%
- Vd [10]: 12.1 L/kg
- bioavailability [11]: 1.7%
- remaining at 0.5 h, 5 µM [12]: 3.7%
- IC50 [5]: 3 nM
- remaining at 0.5 h, 5 µM [3]: 5.1 to 7.1%
- half-life [13]: 57 min

Structure (SMILES): Nc1ncnc2c1c(-c1cc(F)c3c(c1)NCCO3)nn2C1CCc2ccccc2C1 (racemic)
- inhibition [1]: 34%
- inhibition [2]: 52%

Structure (SMILES): Nc1ncnc2c1c(-c1ccc3[nH]cnc3c1)nn2C1Cc2ccccc2C1
- remaining at 0.5 h, 5 µM [3]: 90%

Structure (SMILES): Nc1ncnc2c1c(-c1cc(F)c3c(c1)NCCO3)nn2C1Cc2cc(F)ccc2C1=O (racemic)
- inhibition [1]: 6.6%
- inhibition [2]: 26%

Structure (SMILES): Nc1cc(-c2nn(C3Cc4ccccc4C3)c3ncnc(N)c23)cc(F)c1F
- inhibition [1]: 63%
- inhibition [2]: 26%
- remaining at 0.5 h, 5 µM [3]: 97%

Structure (SMILES): Nc1ncnc2c1c(-c1cc(F)c(F)c(F)c1)nn2C1Cc2ccccc2C1
- inhibition [1]: 21%
- inhibition [2]: 21%
- remaining at 0.5 h, 5 µM [3]: 85%

Structure (SMILES): Nc1ncnc2c1c(-c1ccc(Cl)c(O)c1)nn2C1Cc2ccccc2C1
- IC50 [4]: 14 nM

Structure (SMILES): Nc1ccc2c(c1)CC(n1nc(-c3cc(F)c4c(c3)NCCO4)c3c(N)ncnc31)CC2 (single isomer, unassigned; (-))
- IC50 [4]: 19 nM
- IC50 [5]: 72 nM

Structure (SMILES): Nc1ccc2c(c1)CC(n1nc(-c3cc(F)c4c(c3)NCCO4)c3c(N)ncnc31)C2 (single isomer, unassigned; (-)) [listing 2 of 2 here]
- Ratio IC50 (Homo sapiens [23]): 17
- Ratio IC50 (Homo sapiens [24]): 7
- Ratio IC50 (Homo sapiens [25]): 44
- Ratio IC50 (Homo sapiens [26]): 1
- Ratio IC50 (Homo sapiens [27]): 7

Structure (SMILES): Nc1cc(-c2nn(C3Cc4ccccc4C3)c3ncnc(N)c23)ccc1F
- inhibition [1]: 79%
- inhibition [2]: 8.2%
- remaining at 0.5 h, 5 µM [3]: 92%

Structure (SMILES): Nc1ccc2c(c1)CC(n1nc(-c3cc(F)c4c(c3)NCCO4)c3c(N)ncnc31)C2 (stereo in doubt; (+)-32)
- Ratio IC50 (Homo sapiens [23]): 6
- Ratio IC50 (Homo sapiens [24]): 2
- Ratio IC50 (Homo sapiens [25]): 34
- Ratio IC50 (Homo sapiens [26]): 4
- Ratio IC50 (Homo sapiens [27]): 20

Structure (SMILES): Nc1ncnc2c1c(-c1ccc3nc[nH]c3c1)nn2C1Cc2ccccc2C1
- inhibition [1]: 9.6%
- inhibition [2]: 78%

Structure (SMILES): Nc1ncnc2c1c(-c1ccc3c(c1)NCCO3)nn2C1Cc2ccccc2C1
- inhibition [1]: 57%
- inhibition [2]: 40%
- remaining at 0.5 h, 5 µM [3]: 98%
